Common to all, as to experiment: DTP human tumour cell line panel, 48 h
The test system of assay [1] is CAKI-1 renal.
The test system of assay [2] is HT29 colon.
The test system of assay [3] is LOX IMVI melanoma.
For assay [4], the system named is MDA-MB-435.
Assay [5] concerns OVCAR-5 ovarian.
In assay [6] the test system is RXF 393 renal.
Assay [7] has as its system SK-MEL-2 melanoma.
Assay [8] concerns SK-MEL-5 melanoma.
The test system of assay [9] is SNB-19 CNS.
The test system of assay [10] is UACC-257 melanoma.

Molecules are shown by their SMILES. Several values for one entry are separate records, joined by “and”; a condition that tells them apart may be missing. Equal values may be shown once.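 Cultured in 96-well plates, cells were exposed to test compound for 48 hours across five concentrations. At the GI50, growth is halved. TGI: concentration producing complete growth inhibition.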

The text below walks through data of PubChem BioAssay (NCI).

Usually GI50 stands for the concentration at which growth is held to half of that of the control. What is called TGI is the concentration at which net growth stops. Take `COc1cc(C)c2sc3ccccc3c(=O)c2c1NCCN(C)C`: the GI50 is 5.87 µM in [1]; 2.62 µM in assay [2]; 3.66 µM in [3]; 2.91 µM in assay [4]; 9.57 µM in assay [5]; 2.4 µM in assay [6]. Besides, the GI50 in [7] is 6.64 µM; in assay [8], 1.67 µM; in [9] it was 12.9 µM; in assay [10] it was 2.06 µM. For the same compound, the TGI in [1] was 19.4 µM; in assay [2], 9.15 µM; in assay [3] it was 13.1 µM; in assay [4], 10.6 µM; in assay [5], 22.3 µM; in [6] it was 9.41 µM. Further, the TGI in assay [7] stood at 19.6 µM; in assay [8], 3.08 µM; in [9], 27.2 µM; in [10], 3.97 µM.

Take `CCN1C(=NCCO)NS(=O)(=O)c2ccccc21`: the concentration for total growth inhibition (TGI) in [1], in assay [2], in assay [3], in assay [4], in [5] and in [6] was over 100 µM in each case. In addition, the TGI in assay [7], in [8], in assay [9] and in assay [10] was over 100 µM in each case.

For `CN1CCN(c2nc(-c3csc(-c4cccs4)n3)cc3ccccc23)CC1`, the GI50 is 1.61 µM in assay [1]; 1.66 µM in [2]; 1.78 µM in assay [3]; 1.73 µM in assay [4]; 1.66 µM in assay [5]; 1.78 µM in [6]. In addition, the GI50 in [7] was 1.47 µM; in assay [8], 1.71 µM; in assay [9] it was 2.14 µM; in assay [10], 1.87 µM. Besides, the concentration for total growth inhibition (TGI) was 3.01 µM in assay [1]; 3.41 µM in assay [2]; 3.22 µM in assay [3]; 3.24 µM in [4]; 3.13 µM in assay [5]; 3.9 µM in [6]. The concentration for total growth inhibition (TGI) turned out to be 3.48 µM in [7], 3.12 µM in assay [8], 5.36 µM in assay [9] and 3.68 µM in assay [10].

Turning to `CC(C)(C)OC(=O)NCc1cccc(N=C=S)c1`, the GI50 was 20.5 µM in assay [1]; 23.2 µM in assay [2]; 16.7 µM in [3]; 18.5 µM in [4]; 20.6 µM in [5]; 16.8 µM in assay [6]. The GI50 is 21.3 µM in assay [7], 14.9 µM in assay [8], 17.6 µM in assay [9] and 21.7 µM in [10]. Moreover, the total growth inhibition concentration (TGI) in assay [1] came out at 53.9 µM; in assay [2], 54 µM; in [3], 31.9 µM; in [4], 63.1 µM; in [5] it was 74.9 µM; in assay [6] it was 36.1 µM. Besides, the total growth inhibition concentration (TGI) in assay [7] turned out to be 45.7 µM; in [8] it was 28.4 µM; in assay [9], 44.7 µM; in assay [10], 54.4 µM.

Turning to `COc1c(N2CCN(CN3C(=O)C(=O)c4cc(Cl)ccc43)C(C)C2)c(F)cc2c(=O)c(C(=O)O)cn(C3CC3)c12` (stereo not given), the GI50 in assay [1] was 24.7 µM; in assay [2] it was 30.9 µM; in assay [3] it was 19 µM; in assay [4], 17.2 µM; in assay [5] it was 85.9 µM; in assay [6], 34.4 µM. Besides, the GI50 in [7] was over 100 µM; in assay [8], 15.6 µM; in [9], 92.2 µM; in [10] it was 27.7 µM. Further, the TGI in [1] is over 100 µM; in assay [2], over 100 µM; in assay [3], over 100 µM; in assay [4], 36.3 µM; in assay [5] it was over 100 µM; in assay [6], over 100 µM. Also, the total growth inhibition concentration (TGI) is over 100 µM in [7], 34.8 µM in assay [8], over 100 µM in assay [9] and 72.9 µM in assay [10].

Turning to `COC(=O)[C@H](Cc1cn(C)cn1)NC(=O)[C@H](C)NC(=O)Nc1cc(C(F)(F)F)cc(C(F)(F)F)c1`, the GI50 in [1], in assay [2], in assay [3], in assay [4], in assay [5] and in [6] was over 10 µM each time. The GI50 in assay [7], in [8], in assay [9] and in assay [10] was over 10 µM each time. Further, the total growth inhibition concentration (TGI) in assay [1], in assay [2], in assay [3], in [4], in assay [5] and in [6] was over 10 µM in each case. Besides, the TGI in [7], in [8], in [9] and in assay [10] was over 10 µM each time.

For `C=Cn1c([N+](=O)[O-])cnc1/C=C/c1ccc(C(=O)OCCN2CCOCC2)cc1`, the concentration for total growth inhibition (TGI) in assay [1], in assay [2], in assay [3], in [4], in assay [5] and in [6] was over 100 µM throughout. The total growth inhibition concentration (TGI) in [7], in assay [8], in assay [9] and in assay [10] was over 100 µM throughout.

For the compound `CCc1nc(N)nc(N)c1-c1ccc(Cl)c(N=[N+]=[N-])c1`, the GI50 was 19.3 µM and 7.29 µM in assay [1]; 1.32 µM and 3.06 µM in [2]; 2.86 µM and 11.7 µM in assay [6]; 5.09 µM and 19.5 µM in assay [9]; 1.58 µM and 12.9 µM in [10]. Moreover, the concentration for total growth inhibition (TGI) is 99.5 µM and > 96.4 µM in [1]; over 85.4 µM in [2]; > 100 µM and 67.7 µM in assay [3]; 36.7 µM and > 83.7 µM in assay [4]; over 100 µM in [5]; 42.3 µM and 73.6 µM in assay [6]. The TGI in [7] is 41.3 µM and 43.7 µM; in [8], 19.1 µM and 18.2 µM; in assay [9], over 100 µM; in [10], 40 µM and > 92.7 µM.
